The values that follow come from paper PMC10983001, “Development of Cytotoxic GW7604-Zeise’s Salt Conjugates as Multitarget Compounds with Selectivity for Estrogen Receptor- Positive Tumor Cells” (Journal of Medicinal Chemistry, 2024).

Where two headings read alike, the source gives them in different places.

Holding throughout (assay type): cell-based, human
The test system of series [1] is MCF-7 cells. As to the kind of experiment: MTT assay of metabolic activity, MCF-7. Particulars: 72 h, MTT, read-out: IC50 MCF-7. As for the experimental part: (§1) The GW7604-Alk-PtCl3 complexes (with exclusion of GW7604-Prop-PtCl3) were investigated for cytotoxic effects in SKBr3 (ER-negative, COX-2-positive, Figure 6), MCF-7 (ERα-positive, COX-negative, Figure 6), and noncancerous TSA-201 (human embryonal kidney) cells at concentrations of 10–30 μM using an established MTT (3-(4,5-dimethylthiazol-2-yl)-2,5-diphenyltetrazolium bromide) assay.[60],[69]
(§2) After incubation for 72 h, the amounts of surviving, metabolically active cells were quantified based on their ability to transform the water-soluble yellow dye MTT to a purple formazan, which can be analyzed by UV–vis spectroscopy.
(§3) The exponentially growing cells were seeded at a density of 1750 (MCF-7), 2000 (SKBr3), and 1250 (TSA-201) cells/well into clear flat-bottom 96-well plates in triplicate. Following 24 h of incubation at 37 °C in a humidified atmosphere (5% CO2/95% air), the compounds [freshly prepared stock solutions in DMF, diluted with DMEM to the desired concentration (final DMF concentration of 0.1% (v/v))] were added to reach the indicated concentrations. After another 72 h of incubation, the cellular metabolic activity was measured employing an MTT assay. By adding predissolved MTT reagent in PBS at a final concentration of 0.5 mg/mL, the metabolic activity can be determined via an enzymatic conversion to a purple formazan salt. After 3 h, the medium was aspirated, and 200 μL of DMSO was added to dissolve the formed formazan crystals. The absorbance was measured at 570 and 690 nm (turbidity assessment) using an EnSpire plate reader (PerkinElmer, Waltham, MA, USA). Solvent-treated cells without a compound served as the positive control. Metabolic activity was calculated by the following equation [drawing 1]
On the technique in general: Tetrazolium dyes change colour on reduction, which living cells bring about.

Series [2] deals with SKBr3 cells. As to the kind of experiment: MTT assay of metabolic activity, SKBr3. Particulars: 72 h; for IC50: MTT. As for the experimental part:
as §1, §2, §3

Series [3] relates to SKBr3 cells. Nature of the series: Cellular uptake (platinum by HR-CS-AAS), SKBr3. The settings on record: 8 h. As for the experimental part: (§4) In order to reach the DNA, the complexes must first pass through the cell membrane and penetrate into the nuclei. Therefore, the cellular uptake kinetics of GW7604-Alk-PtCl3 complexes were studied using the example of GW7604-Pent-PtCl3. This complex and Cisplatin, respectively, were incubated at a concentration of 20 μM with MCF-7 or SKBr3 cells. After various time points [i.e., 0 (3 min), 0.5, 1, 2, 4, and 8 h], cell pellets were prepared, and the platinum content was quantified by high-resolution continuum source atomic absorption spectrometry (HR-CS-AAS).[52]
After thawing of the cell/nuclei pellets, they were resuspended in ultrapure water (Siemens LaboStar, Günzburg, Germany; 300 μL) and lyzed with a sonotrode (Bandelin Sonoplus, Berlin, Germany; parameters 20 s, 9 cycles, 80% power). Graphite furnace (GF) AAS was used to quantify the lysates concerning their content of platinum (λ = 265.9450 nm). For this purpose, a contrAA 700 High-Resolution-Continous Source AAS (Analytik Jena, Jena, Germany) was employed, while atomization took place by electrothermal heating of graphite tubes with an inserted platform (Analytik Jena, Jena, Germany). A time–temperature program reported in the literature[25] was followed with minor adjustments. The liquid samples kept in 0.5 mL polystyrene vials (Gesellschaft für Analysentechnik, Salzwedel, Germany) were injected directly into the pyrolytically coated tubes using an MPE 60 autosampler (Analytik Jena, Jena, Germany). Throughout the measurements, argon (Alphagaz 1, 99.999%, Air Liquide, Düsseldorf, Germany) served as the purge and protective gas. The spectrometer was monitored with the ASpect CS software, version 2.3.1.0 (Analytik Jena, Jena, Germany). For all runs, the mean integrated absorbance was determined after three injections of each standard or sample. Calibration was performed by an appropriate dilution of a solution of Cisplatin (Sigma-Aldrich, Taufkirchen, Germany) obtaining five standards (2–10 μg/L, R^2 ≥ 0.982). Each cell/nuclei lysate was quantified concerning its protein content following the method of Bradford[71] in order to express the uptake as the amount of compound (pmol) in the lysate relative to its protein mass (mg). Therefore, solutions of Albumin fraction V (Carl Roth, Karlsruhe, Germany) diluted with ultrapure water were adduced for the calibration (six standards, 50–300 μg/mL, R^2 ≥ 0.996). […] All standards and lysates were measured in duplicate. After incubating for 5 min at rt, the absorbance (λ = 595 nm) was read on a microplate reader (Tecan Safire 2, Männedorf, Switzerland). […]

In another series the test system is nuclei of MCF-7 cells. As to the kind of experiment: Nuclear uptake (platinum by HR-CS-AAS), MCF-7. The settings on record: MCF-7, 20 μM, 24 h; pmol complex/mg protein. As for the experimental part:
(§5) Fluorescence in the nuclei is not detectable. Therefore, the nuclei were analyzed for their platinum content using HR-CS-AAS.[25]
(§6) After thawing of the cell/nuclei pellets, they were resuspended in ultrapure water (Siemens LaboStar, Günzburg, Germany; 300 μL) and lyzed with a sonotrode (Bandelin Sonoplus, Berlin, Germany; parameters 20 s, 9 cycles, 80% power). Graphite furnace (GF) AAS was used to quantify the lysates concerning their content of platinum (λ = 265.9450 nm). For this purpose, a contrAA 700 High-Resolution-Continous Source AAS (Analytik Jena, Jena, Germany) was employed, while atomization took place by electrothermal heating of graphite tubes with an inserted platform (Analytik Jena, Jena, Germany). […] The spectrometer was monitored with the ASpect CS software, version 2.3.1.0 (Analytik Jena, Jena, Germany). For all runs, the mean integrated absorbance was determined after three injections of each standard or sample. […] Each cell/nuclei lysate was quantified concerning its protein content following the method of Bradford[71] in order to express the uptake as the amount of compound (pmol) in the lysate relative to its protein mass (mg). […] All standards and lysates were measured in duplicate. After incubating for 5 min at rt, the absorbance (λ = 595 nm) was read on a microplate reader (Tecan Safire 2, Männedorf, Switzerland). […]

Series [4] deals with MCF-7 cells. As to the kind of experiment: Cellular uptake (platinum by HR-CS-AAS), MCF-7. The settings on record: MCF-7, 20 μM, 8 h. As for the experimental part:
as §4
After thawing of the cell/nuclei pellets, they were resuspended in ultrapure water (Siemens LaboStar, Günzburg, Germany; 300 μL) and lyzed with a sonotrode (Bandelin Sonoplus, Berlin, Germany; parameters 20 s, 9 cycles, 80% power). Graphite furnace (GF) AAS was used to quantify the lysates concerning their content of platinum (λ = 265.9450 nm). For this purpose, a contrAA 700 High-Resolution-Continous Source AAS (Analytik Jena, Jena, Germany) was employed, while atomization took place by electrothermal heating of graphite tubes with an inserted platform (Analytik Jena, Jena, Germany). A time–temperature program reported in the literature[25] was followed with minor adjustments. The liquid samples kept in 0.5 mL polystyrene vials (Gesellschaft für Analysentechnik, Salzwedel, Germany) were injected directly into the pyrolytically coated tubes using an MPE 60 autosampler (Analytik Jena, Jena, Germany). Throughout the measurements, argon (Alphagaz 1, 99.999%, Air Liquide, Düsseldorf, Germany) served as the purge and protective gas. The spectrometer was monitored with the ASpect CS software, version 2.3.1.0 (Analytik Jena, Jena, Germany). For all runs, the mean integrated absorbance was determined after three injections of each standard or sample. Calibration was performed by an appropriate dilution of a solution of Cisplatin (Sigma-Aldrich, Taufkirchen, Germany) obtaining five standards (2–10 μg/L, R^2 ≥ 0.982). Each cell/nuclei lysate was quantified concerning its protein content following the method of Bradford[71] in order to express the uptake as the amount of compound (pmol) in the lysate relative to its protein mass (mg). Therefore, solutions of Albumin fraction V (Carl Roth, Karlsruhe, Germany) diluted with ultrapure water were adduced for the calibration (six standards, 50–300 μg/mL, R^2 ≥ 0.996). A volume of 20 μL of the Albumin standards or the lysates was added to a 96-well plate (Sarstedt, Nürmbrecht, Germany) and supplemented with 200 μL of Bradford’s reagent (Roti-Nanoquant, Carl Roth, Karlsruhe, Germany; diluted 5-fold with ultrapure water). All standards and lysates were measured in duplicate. After incubating for 5 min at rt, the absorbance (λ = 595 nm) was read on a microplate reader (Tecan Safire 2, Männedorf, Switzerland). The cellular/nuclear uptake (pmol complex/mg protein) is given as the mean ± SD of 2 independent experiments.
For cellular uptake studies, 1.0 × 10^6 of MCF-7 and SKBr3 cells in their exponential growing phase were seeded into 25 cm^2 cell culture flasks and incubated for 24 h under a humidified atmosphere (5% CO2/95% air) at 37 °C. Stock solutions of the platinum complexes (GW7604-Pent-PtCl3, Cisplatin) in DMF were freshly prepared and diluted with complete DMEM containing 10% FCS to the desired concentration [final DMF concentration of 0.1% (v/v), final complex concentration of 20 μM]. The medium in the cell culture flasks was replaced with 3 mL of fresh cell culture medium containing the compounds, and the flasks were incubated under a humidified atmosphere at 37 °C for 3 min, 0.5, 1, 2, 4, and 8 h. Cell pellets were prepared by removing the medium, washing two times with phosphate-buffered saline (PBS), and detaching the cells with Accutase (GE Healthcare, BioSciences, Chicago, IL, USA). Subsequently, cells were pelleted by centrifugation (4 °C, 380g, 3 min). […]

Series [5] deals with MCF-7 cells. As to the kind of experiment: Comet assay. Particulars: MCF-7, 15 μM, 48 h. As for the experimental part:
The comet assay (Figure 10), however, documents different consequences of DNA binding. […] The picture (Figure 10C) is very similar to that of the solvent control (Figure 10A).
MCF-7 cells were seeded at a density of 1.0 × 10^6 cells into a 25 cm^2 flask, followed by 24 h of incubation in a humidified atmosphere (5% CO2/95% air) at 37 °C. […] Cells were incubated with the compounds for 48 h. The assay was performed according to the manufacturer’s protocol (Comet assay kit, Abcam, Cambridge, UK). Briefly, after lysis and application to the microscopy slides, electrophoresis was run in an alkaline buffer for 20 min at 2 V/cm. Subsequently, slides were washed with pure deionized water and EtOH/water [7/3 (v/v)], and stained with Vista Green DNA Dye. Visualization was carried out by real-time live confocal microscopy using an inverted microscope (Zeiss Observer Z1) in arrangement with a spinning disc confocal system (UltraVIEW VoX).

The subject of the next series is nuclei of SKBr3 cells. Nature of the series: Nuclear uptake (platinum by HR-CS-AAS), SKBr3. Particulars: SKBr3, 20 μM, 24 h. As for the experimental part:
as §5, §6

For the next series, the system named is TSA-201 cells. Nature of the series: MTT assay of metabolic activity, noncancerous TSA-201. The settings on record: 72 h; for IC50: MTT, read-out: IC50 TSA-210. As for the experimental part:
as §1, §2, §3

Turning to `C=CCOC(=O)/C=C/c1ccc(C(=C(CC)c2ccccc2)c2ccc(O)cc2)cc1` (mixture of isomers) [GW7604-Prop, Prop-2-en-1-yl (E)-3-(4-((E/Z)-1-(4-hydroxyphenyl)-2-phenylbut-1-en-1-yl)phenyl) Acrylate], the IC50 (as a rule, the concentration at which inhibition is half-maximal) with MCF-7 cells [1] (Homo sapiens, MCF7) lay within 20 to 30 µM.
Regarding `N.N.[Cl][Pt][Cl]` [Cisplatin, cis-diamminedichloridoplatinum(II), reference compound], the “reduction of metabolic activity” value in the series with SKBr3 cells [2] (SKBr3, 20 μM) worked out at 88%. Also, the IC50 in the series on MCF-7 cells [1] came out at 15 µM. Further, in the series on SKBr3 cells [3] (20 μM), the “accumulation in SKBr3 relative to MCF-7 cells” value amounted to 15 fold. In addition, the intracellular platinum amount in the series on SKBr3 cells [3] (SKBr3, 20 μM) came out at 995 pmol/mg; with MCF-7 cells [4], 319 pmol/mg. Also, the “platinum content in the nuclei” value in the series with nuclei of MCF-7 cells was determined as 172 pmol/mg; in the series on nuclei of SKBr3 cells it was 652 pmol/mg. Besides, the “comet tails (DNA cross-links)” value in the series on MCF-7 cells [5] is recorded as “visible as comet tails”.
Turning to “Potassium trichlorido[η^2-(but-3-en-1-yl (E)-3-(4-((E/Z)-1-(4-hydroxyphenyl)-2-phenylbut-1-en-1-yl)phenyl)acrylate)]platinate(II) [GW7604-But-PtCl3]”, the concentration for half-maximal inhibition (IC50) in the series on SKBr3 cells [2] was greater than 30 µM; with MCF-7 cells [1], 20.4 µM; in the series on TSA-201 cells, greater than 30 µM. Moreover, the “decrease of cell viability” value in the series with TSA-201 cells (TSA-201, 30 μM) is given as “about 20%”.
In the case of “Potassium trichlorido[η^2-(hex-5-en-1-yl (E)-3-(4-((E/Z)-1-(4-hydroxyphenyl)-2-phenylbut-1-en-1-yl)phenyl)acrylate)]platinate(II) [GW7604-Hex-PtCl3]”, the IC50 with SKBr3 cells [2] is greater than 30 µM; in the series with MCF-7 cells [1] it was 20.5 µM; in the series with TSA-201 cells, greater than 30 µM.
